Data published in patent US9409905B2, “Antibacterial compounds and methods for use” (PTC THERAPEUTICS, INC., priority 2011, dated 2016).
Values after ≈ are worked out from the molar mass of the structure shown.

Key:
[1] = test system: Escherichia coli (E. coli) BAS849; experiment: Antibacterial activity, microbroth dilution MIC (Table 1); type: cell-based; conditions: microbroth dilution, super sensitive Gram-negative E. coli BAS849, read-out: MIC, BAS849
Text: (§1) The antibacterial activity from a microbroth dilution method may be presented as the minimum inhibitory concentration (MIC in μg/mL). The MIC value is the lowest concentration of drug which prevents macroscopically visible growth under test conditions.
(§2) Antibacterial activity of test compounds against the super sensitive Gram-negative Escherichia coli (E. coli) BAS849 bacterium, the control Gram-negative E. coli 25922 strain and the Gram-positive Staphylococcus aureus (S. aureus) 29213 bacterium are shown in Table 1.

[2] = test system: Staphylococcus aureus (S. aureus) 29213; experiment: as above; type: cell-based; conditions: microbroth dilution, Gram-positive S. aureus 29213, read-out: MIC, 29213
Text: as §1, §2

[3] = test system: E. coli 25922; experiment: as above; type: cell-based, Escherichia coli; conditions: Escherichia coli; microbroth dilution; control Gram-negative E. coli 25922 strain; read-out: MIC, 25922
Text: as §1, §2

[4] = test system: E. coli LZ3111; experiment: Antibacterial activity, MIC, quinolone resistant strain (Table 2); type: cell-based; conditions: Escherichia coli, LZ3111, read-out: MIC LZ3111
Text: as §1
Mutations in these regions are known to confer a high level resistance to the quinolone class of antibiotics.

Structure (SMILES) | MIC [1] | MIC [2] | MIC [3] | MIC [4]
CCc1c(-c2ccc3c(c2)cc(CN2CCC[C@H]2C(=O)OC)n3C)[nH]c(=O)c(C(=O)O)c1O [Cpd 190, (S)-5-ethyl-4-hydroxy-6-(2-((2-(methoxycarbonyl)pyrrolidin-1-yl)methyl)-1-methyl-1H-indol-5-yl)-2-oxo-1,2-dihydropyridine-3-carboxylic acid] | < 1 µg/mL | 3.5 to 12.5 µg/mL (≈ 7.72 to 27.6 µM) | 12.5 to 150 µg/mL (≈ 27.6 to 331 µM) | 12.5 to 150 µg/mL (≈ 27.6 to 331 µM)
CCc1c(-c2ccc3c(c2)cc(CN2CCN(C(C)=O)CC2)n3C)[nH]c(=O)c(C(=O)O)c1O [Cpd 175, 6-(2-((4-acetylpiperazin-1-yl)methyl)-1-methyl-1H-indol-5-yl)-5-ethyl-4-hydroxy-2-oxo-1,2-dihydropyridine-3-carboxylic acid] | < 1 µg/mL | 1 to 3.5 µg/mL (≈ 2.21 to 7.73 µM) | 3.5 to 12.5 µg/mL (≈ 7.73 to 27.6 µM) | 12.5 to 150 µg/mL (≈ 27.6 to 331 µM)
CCc1cc(C(=O)O)c(=O)[nH]c1-c1ccc2c(c1)cc(CCN)n2C.Cl [Cpd 163, 6-(2-(2-aminoethyl)-1-methyl-1H-indol-5-yl)-5-ethyl-2-oxo-1,2-dihydropyridine-3-carboxylic acid hydrochloride] | < 1 µg/mL | 12.5 to 150 µg/mL | 12.5 to 150 µg/mL | 12.5 to 150 µg/mL
CCc1c(-c2ccc3c(c2)cc(CN2CCC2)n3C)[nH]c(=O)c(C(=O)O)c1C(=O)O [Cpd 109, 6-(2-(azetidin-1-ylmethyl)-1-methyl-1H-indol-5-yl)-5-ethyl-2-oxo-1,2-dihydropyridine-3,4-dicarboxylic acid] | 12.5 to 150 µg/mL (≈ 30.5 to 366 µM) | 12.5 to 150 µg/mL (≈ 30.5 to 366 µM) | 12.5 to 150 µg/mL (≈ 30.5 to 366 µM) | 12.5 to 150 µg/mL (≈ 30.5 to 366 µM)
CCc1cc(C(=O)O)c(=O)[nH]c1-c1ccc2nc(N(C)C)oc2c1 [Cpd 17, 6-(2-(dimethylamino)benzo[d]oxazol-6-yl)-5-ethyl-2-oxo-1,2-dihydropyridine-3-carboxylic acid] | 3.5 to 12.5 µg/mL (≈ 10.7 to 38.2 µM) | 1 to 3.5 µg/mL (≈ 3.05 to 10.7 µM) | 12.5 to 150 µg/mL (≈ 38.2 to 458 µM) | 
CCc1cc(C(=O)O)c(=O)[nH]c1-c1ccc2c(c1)cc(CN1Cc3cccnc3C1)n2C [Cpd 135, 6-(2-((5H-pyrrolo[3,4-b]pyridin-6(7H)-yl)methyl)-1-methyl-1H-indol-5-yl)-5-ethyl-2-oxo-1,2-dihydropyridine-3-carboxylic acid] | < 1 µg/mL | 12.5 to 150 µg/mL (≈ 29.2 to 350 µM) | 3.5 to 12.5 µg/mL (≈ 8.17 to 29.2 µM) | 12.5 to 150 µg/mL (≈ 29.2 to 350 µM)
CCc1c(-c2ccc3c(c2)cc(CNCC2CCCCC2)n3C)[nH]c(=O)c(C(=O)O)c1O.Cl [Cpd 222, 6-(2-((cyclohexylmethylamino)methyl)-1-methyl-1H-indol-5-yl)-5-ethyl-4-hydroxy-2-oxo-1,2-dihydropyridine-3-carboxylic acid hydrochloride] | < 1 µg/mL | 1 to 3.5 µg/mL | < 1 µg/mL | 12.5 to 150 µg/mL
CCc1cc(C(=O)O)c(=O)[nH]c1-c1cc2cc(CN(C)C)n(C)c2s1.Cl [Cpd 65, 6-(5-((dimethylamino)methyl)-6-methyl-6H-thieno[2,3-b]pyrrol-2-yl)-5-ethyl-2-oxo-1,2-dihydropyridine-3-carboxylic acid hydrochloride] | < 1 µg/mL | 12.5 to 150 µg/mL | 3.5 to 12.5 µg/mL | 12.5 to 150 µg/mL
Cn1c(CNCC2CC2)cc2cc(-c3[nH]c(=O)c(C(=O)O)c(O)c3-c3ccc(F)cc3)ccc21 [Cpd 311, 6-(2-((cyclopropylmethylamino)methyl)-1-methyl-1H-indol-5-yl)-5-(4-fluorophenyl)-4-hydroxy-2-oxo-1,2-dihydropyridine-3-carboxylic acid] | < 1 µg/mL | 12.5 to 150 µg/mL (≈ 27.1 to 325 µM) | 1 to 3.5 µg/mL (≈ 2.17 to 7.58 µM) | 12.5 to 150 µg/mL (≈ 27.1 to 325 µM)
CCc1cc(C(=O)O)c(=O)[nH]c1-c1ccc2c(c1)cc(C1CCNC1)n2C.Cl (centres unmarked) [Cpd 156, 5-ethyl-6-(1-methyl-2-(pyrrolidin-3-yl)-1H-indol-5-yl)-2-oxo-1,2-dihydropyridine-3-carboxylic acid hydrochloride] | 3.5 to 12.5 µg/mL | 12.5 to 150 µg/mL | 12.5 to 150 µg/mL | 12.5 to 150 µg/mL
CCc1cc(C(=O)O)c(=O)[nH]c1-c1cc2cc(CN(C)C)n(C)c2cc1C [Cpd 96, 6-(2-((dimethylamino)methyl)-1,6-dimethyl-1H-indol-5-yl)-5-ethyl-2-oxo-1,2-dihydropyridine-3-carboxylic acid] | 12.5 to 150 µg/mL (≈ 34 to 408 µM) | 12.5 to 150 µg/mL (≈ 34 to 408 µM) | 12.5 to 150 µg/mL (≈ 34 to 408 µM) | 12.5 to 150 µg/mL (≈ 34 to 408 µM)
CCc1cc(C(=O)O)c(=O)[nH]c1-c1ccc2c(c1)c(C)c(C)n2C [Cpd 29, 5-ethyl-2-oxo-6-(1,2,3-trimethyl-1H-indol-5-yl)-1,2-dihydropyridine-3-carboxylic acid] | < 1 µg/mL | 12.5 to 150 µg/mL (≈ 38.5 to 462 µM) | 12.5 to 150 µg/mL (≈ 38.5 to 462 µM) | 
CCc1c(-c2ccc3c(c2)c(C)c(C)n3C)[nH]c(=O)c(C(=O)O)c1O [Cpd 30, 5-ethyl-4-hydroxy-2-oxo-6-(1,2,3-trimethyl-1H-indol-5-yl)-1,2-dihydropyridine-3-carboxylic acid] | 1 to 3.5 µg/mL (≈ 2.94 to 10.3 µM) | 1 to 3.5 µg/mL (≈ 2.94 to 10.3 µM) | 12.5 to 150 µg/mL (≈ 36.7 to 441 µM) | 12.5 to 150 µg/mL (≈ 36.7 to 441 µM)
CCc1cc(C(=O)O)c(=O)[nH]c1-c1ccc2c(c1)cc(CN1C[C@H]3CCC[C@@H](NC)[C@H]3C1)n2C [Cpd 148, 5-ethyl-6-(1-methyl-2-(((3aR,4R,7aS)-4-(methylamino)-1H-isoindol-2(3H,3aH,4H,5H,6H,7H,7aH)-yl)methyl)-1H-indol-5-yl)-2-oxo-1,2-dihydropyridine-3-carboxylic acid] | 1 to 3.5 µg/mL (≈ 2.16 to 7.57 µM) | 12.5 to 150 µg/mL (≈ 27 to 324 µM) | 3.5 to 12.5 µg/mL (≈ 7.57 to 27 µM) | 12.5 to 150 µg/mL (≈ 27 to 324 µM)
CCc1cc(C(=O)O)c(=O)[nH]c1-c1cc(F)c2c(c1)cc(CN1CCOCC1)n2C [Cpd 98, 5-ethyl-6-(7-fluoro-1-methyl-2-(morpholinomethyl)-1H-indol-5-yl)-2-oxo-1,2-dihydropyridine-3-carboxylic acid] | < 1 µg/mL | 12.5 to 150 µg/mL (≈ 30.2 to 363 µM) | 3.5 to 12.5 µg/mL (≈ 8.47 to 30.2 µM) | 12.5 to 150 µg/mL (≈ 30.2 to 363 µM)
CN(C)Cc1cc2cc(-c3[nH]c(=O)c(C(=O)O)c(O)c3-c3ccc(F)cc3)ccc2n1C [Cpd 310, 6-(2-((dimethylamino)methyl)-1-methyl-1H-indol-5-yl)-5-(4-fluorophenyl)-4-hydroxy-2-oxo-1,2-dihydropyridine-3-carboxylic acid] | < 1 µg/mL | 12.5 to 150 µg/mL (≈ 28.7 to 344 µM) | 3.5 to 12.5 µg/mL (≈ 8.04 to 28.7 µM) | 12.5 to 150 µg/mL (≈ 28.7 to 344 µM)
CCc1cc(C(=O)O)c(=O)[nH]c1-c1cc2cc(CN3CCCC3)n(C)c2s1.Cl [Cpd 64, 5-ethyl-6-(6-methyl-5-(pyrrolidin-1-ylmethyl)-6H-thieno[2,3-b]pyrrol-2-yl)-2-oxo-1,2-dihydropyridine-3-carboxylic acid hydrochloride] | < 1 µg/mL | 12.5 to 150 µg/mL | 12.5 to 150 µg/mL | 12.5 to 150 µg/mL
CCc1cc(C(=O)O)c(=O)[nH]c1-c1ccc2c(c1)cc(CN1CCC(NC)C1)n2C (centres unmarked) [Cpd 127, 5-ethyl-6-(1-methyl-2-((3-(methylamino)pyrrolidin-1-yl)methyl)-1H-indol-5-yl)-2-oxo-1,2-dihydropyridine-3-carboxylic acid] | 1 to 3.5 µg/mL (≈ 2.45 to 8.57 µM) | 12.5 to 150 µg/mL (≈ 30.6 to 367 µM) | 12.5 to 150 µg/mL (≈ 30.6 to 367 µM) | 12.5 to 150 µg/mL (≈ 30.6 to 367 µM)
CCc1cc(C(=O)O)c(=O)[nH]c1-c1cnc2c(c1)c(C#N)cn2C [Cpd 59, 6-(3-cyano-1-methyl-1H-pyrrolo[2,3-b]pyridin-5-yl)-5-ethyl-2-oxo-1,2-dihydropyridine-3-carboxylic acid] | 12.5 to 150 µg/mL (≈ 38.8 to 465 µM) | 12.5 to 150 µg/mL (≈ 38.8 to 465 µM) | 12.5 to 150 µg/mL (≈ 38.8 to 465 µM) | 12.5 to 150 µg/mL (≈ 38.8 to 465 µM)
CCc1cc(C(=O)O)c(=O)[nH]c1-c1ccc2nc(-c3ccccc3)oc2c1 [Cpd 15, 5-ethyl-2-oxo-6-(2-phenylbenzo[d]oxazol-6-yl)-1,2-dihydropyridine-3-carboxylic acid] | 1 to 3.5 µg/mL (≈ 2.77 to 9.71 µM) | 12.5 to 150 µg/mL (≈ 34.7 to 416 µM) | 12.5 to 150 µg/mL (≈ 34.7 to 416 µM) | 
CC(C)c1c(-c2ccc3c(ccn3C)c2)[nH]c(=O)c(C(=O)O)c1O [Cpd 34, 4-hydroxy-5-isopropyl-6-(1-methyl-1H-indol-5-yl)-2-oxo-1,2-dihydropyridine-3-carboxylic acid] | < 1 µg/mL | 1 to 3.5 µg/mL (≈ 3.06 to 10.7 µM) | 3.5 to 12.5 µg/mL (≈ 10.7 to 38.3 µM) | 
CCc1cc(C(=O)O)c(=O)[nH]c1-c1ccc2c(ccn2CC2OCCO2)c1 [Cpd 25, 6-(1-((1,3-dioxolan-2-yl)methyl)-1H-indol-5-yl)-5-ethyl-2-oxo-1,2-dihydropyridine-3-carboxylic acid] | < 1 µg/mL | 12.5 to 150 µg/mL (≈ 33.9 to 407 µM) | 12.5 to 150 µg/mL (≈ 33.9 to 407 µM) | 
CCc1cc(C(=O)O)c(=O)[nH]c1-c1ccc2c(c1)c1c(n2C)CCCC1 [Cpd 27, 5-ethyl-6-(9-methyl-2,3,4,9-tetrahydro-1H-carbazol-6-yl)-2-oxo-1,2-dihydropyridine-3-carboxylic acid] | < 1 µg/mL | 3.5 to 12.5 µg/mL (≈ 9.99 to 35.7 µM) | 12.5 to 150 µg/mL (≈ 35.7 to 428 µM) | 
CCc1c(-c2ccc3c(ccn3CC3OCCO3)c2)[nH]c(=O)c(C(=O)O)c1O [Cpd 26, 6-(1-((1,3-dioxolan-2-yl)methyl)-1H-indol-5-yl)-5-ethyl-4-hydroxy-2-oxo-1,2-dihydropyridine-3-carboxylic acid] | < 1 µg/mL | 3.5 to 12.5 µg/mL (≈ 9.11 to 32.5 µM) | 12.5 to 150 µg/mL (≈ 32.5 to 390 µM) | 
CCc1cc(C(=O)O)c(=O)[nH]c1-c1cn(C)c2ccccc12 [Cpd 13, 5-ethyl-6-(1-methyl-1H-indol-3-yl)-2-oxo-1,2-dihydropyridine-3-carboxylic acid] | 3.5 to 12.5 µg/mL (≈ 11.8 to 42.2 µM) | 12.5 to 150 µg/mL (≈ 42.2 to 506 µM) | 12.5 to 150 µg/mL (≈ 42.2 to 506 µM) | 
CCc1c(-c2ccc3nc(-c4ccccc4)oc3c2)[nH]c(=O)c(C(=O)O)c1O [Cpd 16, 5-ethyl-4-hydroxy-2-oxo-6-(2-phenylbenzo[d]oxazol-6-yl)-1,2-dihydropyridine-3-carboxylic acid] | 3.5 to 12.5 µg/mL (≈ 9.3 to 33.2 µM) | 1 to 3.5 µg/mL (≈ 2.66 to 9.3 µM) | 12.5 to 150 µg/mL (≈ 33.2 to 399 µM) | 
CCc1cc(C(=O)O)c(=O)[nH]c1-c1ccc2ncccc2c1 [Cpd 19, 5-ethyl-2-oxo-6-(quinolin-6-yl)-1,2-dihydropyridine-3-carboxylic acid] | 12.5 to 150 µg/mL (≈ 42.5 to 510 µM) | 12.5 to 150 µg/mL (≈ 42.5 to 510 µM) | 12.5 to 150 µg/mL (≈ 42.5 to 510 µM) | 
